Experimental data: the NIST ThermoML archive (doi:10.1016/j.tca.2016.03.026)

Legend:
[1] = xn = mol fraction of the nth substance listed; conditions: 100 kPa, Liquid; for speed of sound: Frequency=3 MHz, Sing-around technique in a fixed-path interferometer; for mass density: Vibrating tube method
[2] = refractive index (Na D-line) (dimensionless); xn = mol fraction of the nth substance listed; conditions: 100 kPa, Liquid, Standard Abbe refractometry

CCCCCCCC[n+]1ccn(C)c1.F[B-](F)(F)F [1-methyl-3-octylimidazolium tetrafluoroborate] + CC(C)CO
Conditions	mass density, 298.15 K [kg/m3]	mass density, 308.15 K [kg/m3]	mass density, 318.15 K [kg/m3]	refractive index, 298.15 K	refractive index, 308.15 K	refractive index, 318.15 K	speed of sound, 298.15 K [m/s]	speed of sound, 308.15 K [m/s]	speed of sound, 318.15 K [m/s]
[1], x1 = 0.1084	876.21	869.11	860.8	–	–	–	1230.3	1198.3	1162.2
[1], x1 = 0.2056	927.81	920.72	912.57	–	–	–	1274.1	1242.4	1206.4
[1], x1 = 0.3002	966.65	959.59	951.64	–	–	–	1314.4	1282.1	1246.2
[1], x1 = 0.4082	1001.41	994.4	986.65	–	–	–	1354.1	1322.4	1287.5
[1], x1 = 0.4989	1024.88	1017.95	1010.44	–	–	–	1381.1	1351.3	1317.8
[1], x1 = 0.6024	1047.08	1040.26	1032.97	–	–	–	1407.2	1378.2	1347.4
[1], x1 = 0.7044	1065.38	1058.63	1051.52	–	–	–	1429.1	1402.1	1373.3
[1], x1 = 0.8062	1080.91	1074.22	1067.26	–	–	–	1447.2	1421.1	1394.3
[1], x1 = 0.8998	1093.3	1086.63	1079.78	–	–	–	1463.8	1437.1	1411.3
[1], x1 = 1	1105.02	1098.32	1091.54	–	–	–	1485.1	1458.5	1433.2
[2], x1 = 0.1084	–	–	–	1.40643	1.40292	1.40008	–	–	–
[2], x1 = 0.2056	–	–	–	1.41442	1.41142	1.40854	–	–	–
[2], x1 = 0.3002	–	–	–	1.41922	1.41636	1.41407	–	–	–
[2], x1 = 0.4082	–	–	–	1.42292	1.41998	1.41801	–	–	–
[2], x1 = 0.4989	–	–	–	1.42482	1.42182	1.41925	–	–	–
[2], x1 = 0.6024	–	–	–	1.42664	1.42372	1.42108	–	–	–
[2], x1 = 0.7044	–	–	–	1.42845	1.42562	1.42306	–	–	–
[2], x1 = 0.8062	–	–	–	1.43004	1.42748	1.42474	–	–	–
[2], x1 = 0.8998	–	–	–	1.43121	1.42866	1.42604	–	–	–
[2], x1 = 1	–	–	–	1.43253	1.42984	1.42715	–	–	–

CCCCCCCC[n+]1ccn(C)c1.F[B-](F)(F)F [1-methyl-3-octylimidazolium tetrafluoroborate] + CCCCO
Conditions	mass density, 298.15 K [kg/m3]	mass density, 308.15 K [kg/m3]	mass density, 318.15 K [kg/m3]	refractive index, 298.15 K	refractive index, 308.15 K	refractive index, 318.15 K	speed of sound, 298.15 K [m/s]	speed of sound, 308.15 K [m/s]	speed of sound, 318.15 K [m/s]
[1], x1 = 0.1027	878.23	870.62	862.9	–	–	–	1273.2	1240.8	1206.7
[1], x1 = 0.2022	929.75	922.28	914.69	–	–	–	1306.5	1274.7	1241.8
[1], x1 = 0.3056	970.63	963.3	955.89	–	–	–	1339.7	1308.7	1276.3
[1], x1 = 0.3989	999.88	992.71	985.42	–	–	–	1366.1	1336	1304.2
[1], x1 = 0.5062	1027.17	1020.16	1013	–	–	–	1392.8	1363.2	1333.3
[1], x1 = 0.6018	1047.22	1040.32	1033.31	–	–	–	1413.7	1384.8	1356
[1], x1 = 0.6978	1064.35	1057.54	1050.61	–	–	–	1431.9	1403.8	1377
[1], x1 = 0.8014	1080.2	1073.47	1066.62	–	–	–	1450.2	1423	1397.2
[1], x1 = 0.9062	1094.06	1087.36	1080.57	–	–	–	1468.3	1441.6	1416.3
[1], x1 = 1	1105.02	1098.32	1091.54	–	–	–	1485.1	1458.5	1433.2
[2], x1 = 0.1027	–	–	–	1.40763	1.40492	1.40232	–	–	–
[2], x1 = 0.2022	–	–	–	1.41502	1.41254	1.40964	–	–	–
[2], x1 = 0.3056	–	–	–	1.41903	1.41692	1.41438	–	–	–
[2], x1 = 0.3989	–	–	–	1.42183	1.41956	1.41736	–	–	–
[2], x1 = 0.5062	–	–	–	1.42405	1.42175	1.41965	–	–	–
[2], x1 = 0.6018	–	–	–	1.42594	1.42362	1.42126	–	–	–
[2], x1 = 0.6978	–	–	–	1.42791	1.42542	1.42301	–	–	–
[2], x1 = 0.8014	–	–	–	1.42974	1.42732	1.42444	–	–	–
[2], x1 = 0.9062	–	–	–	1.43151	1.42861	1.42615	–	–	–
[2], x1 = 1	–	–	–	1.43253	1.42984	1.42715	–	–	–

CCCCCCCC[n+]1ccn(C)c1.F[B-](F)(F)F [1-methyl-3-octylimidazolium tetrafluoroborate] + CC(C)(C)O
Conditions	mass density, 298.15 K [kg/m3]	mass density, 308.15 K [kg/m3]	mass density, 318.15 K [kg/m3]	refractive index, 298.15 K	refractive index, 308.15 K	refractive index, 318.15 K	speed of sound, 298.15 K [m/s]	speed of sound, 308.15 K [m/s]	speed of sound, 318.15 K [m/s]
[1], x1 = 0.1017	858.69	849.64	840.32	–	–	–	1188.3	1157.2	1119.1
[1], x1 = 0.1988	914.56	906	897.39	–	–	–	1254.2	1221.6	1190.2
[1], x1 = 0.3011	959.49	951.41	943.34	–	–	–	1309.4	1275.6	1246.5
[1], x1 = 0.4052	994.81	987.25	979.38	–	–	–	1351.5	1322.2	1293.3
[1], x1 = 0.5002	1020.68	1013.4	1005.9	–	–	–	1382.5	1353.6	1324.9
[1], x1 = 0.604	1044.05	1037.31	1029.92	–	–	–	1410.1	1383.3	1354.5
[1], x1 = 0.7024	1062.66	1056.01	1049.1	–	–	–	1433.4	1409	1380.2
[1], x1 = 0.7992	1078.39	1071.8	1064.98	–	–	–	1451.3	1428.2	1402.2
[1], x1 = 0.9014	1092.82	1086.23	1079.48	–	–	–	1467.6	1443.3	1417.2
[1], x1 = 1	1105.02	1098.32	1091.54	–	–	–	1485.1	1458.5	1433.2
[2], x1 = 0.1017	–	–	–	1.40022	1.39681	1.39317	–	–	–
[2], x1 = 0.1988	–	–	–	1.40992	1.40684	1.40405	–	–	–
[2], x1 = 0.3011	–	–	–	1.41591	1.41342	1.41058	–	–	–
[2], x1 = 0.4052	–	–	–	1.41962	1.41719	1.41452	–	–	–
[2], x1 = 0.5002	–	–	–	1.42177	1.41911	1.41635	–	–	–
[2], x1 = 0.604	–	–	–	1.42411	1.42168	1.41871	–	–	–
[2], x1 = 0.7024	–	–	–	1.42628	1.42348	1.42104	–	–	–
[2], x1 = 0.7992	–	–	–	1.42805	1.42562	1.42272	–	–	–
[2], x1 = 0.9014	–	–	–	1.43025	1.42769	1.42513	–	–	–
[2], x1 = 1	–	–	–	1.43253	1.42984	1.42715	–	–	–
